pKi: −log10 of the molar value.
Target: human and rat GPR-14
Test: Radioligand binding ([125I] h-U-II)
Conditions: radioligand binding assay; HEK-293 cell membranes, 200 pM [125I] h-U-II; species (human or rat) not given
Procedure: HEK-293 cell membranes containing stable cloned human and rat GPR-14 (20 ug/assay) were incubated with 200 pM [125I] h-U-II (200 Ci/mmol^−1 in the presence of increasing concentrations of test compounds in DMSO (0.1 nM to 10 uM), in a final incubation volume of 200 ul (20 mM Tris-HCl, 5 mM MgCl2). Incubation was done for 30 minutes at room temperature followed by filtration GF/B filters with Brandel cell harvester. ^125I labeled U-II binding was quantitated by gamma counting. Nonspecific binding was defined by ^125I U-II binding in the presence of 100 nM of unlabeled human U-II. Analysis of the data was performed by nonlinear least square fitting.

O=C(NC1CCN(S(=O)(=O)c2cc(Cl)c(OC3CCNCC3)c(Cl)c2)C1)c1ccc(Cl)c(Cl)c1 (stereo not shown) [Example 5]
pKi: 5.82
